The text below walks through data of US9872875B2, “Component and method for treating viral disease” (Institut Pasteur of Shanghai, Chinese Academy of Sciences, priority 2012, dated 2018).

Read-outs that look alike come from different tables or passages of the source.

Assay [1] has as its target T1, P2X7 receptor (Homo sapiens, UniProt Q99572).
T1 sequence (Q99572 1-595): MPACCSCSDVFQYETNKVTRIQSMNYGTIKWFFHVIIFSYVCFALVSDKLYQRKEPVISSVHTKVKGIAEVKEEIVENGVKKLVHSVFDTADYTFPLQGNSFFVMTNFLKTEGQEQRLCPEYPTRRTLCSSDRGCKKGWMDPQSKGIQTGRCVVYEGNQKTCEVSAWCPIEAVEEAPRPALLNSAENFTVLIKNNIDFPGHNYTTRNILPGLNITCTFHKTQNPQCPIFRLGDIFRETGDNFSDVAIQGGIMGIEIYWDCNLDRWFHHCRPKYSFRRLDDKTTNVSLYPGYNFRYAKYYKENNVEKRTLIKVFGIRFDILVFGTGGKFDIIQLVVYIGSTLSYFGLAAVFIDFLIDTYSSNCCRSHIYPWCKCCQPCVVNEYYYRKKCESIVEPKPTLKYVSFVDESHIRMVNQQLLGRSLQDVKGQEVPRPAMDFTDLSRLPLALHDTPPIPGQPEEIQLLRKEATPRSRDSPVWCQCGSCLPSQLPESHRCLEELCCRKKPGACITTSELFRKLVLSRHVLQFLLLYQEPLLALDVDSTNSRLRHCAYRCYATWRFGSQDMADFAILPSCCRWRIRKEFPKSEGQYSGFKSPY
The note with it: Table 8, antagonists; cited from earlier work.

In assay [2] the test system is EV71. Kind of assay: Inhibition of EV71 replication in RD cells at 0.1, 1, 10 and 100 μM (CPE, crystal violet). The class given is cell-based, Enterovirus 71. Here is the method: Inhibitory effect of each P2X receptor antagonists and agonists on EV71 replication was measured at 0.1, 1, 10, and 100 μM. Specific procedures refer to “1” of Example 1. after infection, however, cells need to be incubated for 3˜4 days, stained with crystal violet, and observed under optical microscope to determine whether or not CPE (cytopathic effect) was present. In addition, the effect of compounds at each concentration on cytotoxicity to RD cells was determined. After culturing RD cells in various concentrations of compounds for 3˜4 days, stained with crystal violet, and observed under optical microscope to observe whether or not cell layer was damaged. Compounds capable of protecting cells from infection without damage of healthy cell layer can inhibit EV71 replication in RD cells.

Assay [3] concerns the target T2, P2X3 receptor (Homo sapiens, UniProt P56373).
T2 sequence (P56373 1-397): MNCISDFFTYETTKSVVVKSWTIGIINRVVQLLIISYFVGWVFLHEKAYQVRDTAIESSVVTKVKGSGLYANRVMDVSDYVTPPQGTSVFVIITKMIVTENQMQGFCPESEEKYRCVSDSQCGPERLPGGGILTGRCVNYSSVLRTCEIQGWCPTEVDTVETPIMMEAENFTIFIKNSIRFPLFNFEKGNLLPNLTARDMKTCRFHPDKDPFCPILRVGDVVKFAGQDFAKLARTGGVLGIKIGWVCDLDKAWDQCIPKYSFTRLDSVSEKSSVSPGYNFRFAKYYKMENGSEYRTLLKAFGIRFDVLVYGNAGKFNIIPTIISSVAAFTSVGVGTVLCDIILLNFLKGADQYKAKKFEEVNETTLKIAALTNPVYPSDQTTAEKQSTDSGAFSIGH
The conditions noted are these: cited from earlier work.

Assay [4] deals with P2X5 receptor (Homo sapiens, UniProt Q93086). The conditions noted are these: Table 8, antagonists; cited from earlier work.
Sequence of P2X5 receptor (Q93086 whole entry): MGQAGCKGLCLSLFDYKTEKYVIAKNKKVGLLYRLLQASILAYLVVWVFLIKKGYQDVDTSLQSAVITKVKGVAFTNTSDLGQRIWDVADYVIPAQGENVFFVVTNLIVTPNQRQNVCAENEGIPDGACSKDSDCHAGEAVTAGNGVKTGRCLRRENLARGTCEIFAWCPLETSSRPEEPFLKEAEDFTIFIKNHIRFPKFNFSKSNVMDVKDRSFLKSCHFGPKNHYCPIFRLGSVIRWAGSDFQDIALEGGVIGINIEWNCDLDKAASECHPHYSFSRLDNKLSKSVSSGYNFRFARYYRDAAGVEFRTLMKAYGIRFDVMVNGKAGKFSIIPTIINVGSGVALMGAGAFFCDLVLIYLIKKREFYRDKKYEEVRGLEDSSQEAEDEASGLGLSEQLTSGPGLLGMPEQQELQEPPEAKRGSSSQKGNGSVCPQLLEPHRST
Assay [5] has as its target P2X2/3 (Homo sapiens, UniProt P56373+Q9UBL9). The note with it: Table 9, antagonists; cited from earlier work.
Assay [6] concerns the target T3, P2X1 receptor (Homo sapiens, UniProt P51575).
T3 sequence (P51575 1-399): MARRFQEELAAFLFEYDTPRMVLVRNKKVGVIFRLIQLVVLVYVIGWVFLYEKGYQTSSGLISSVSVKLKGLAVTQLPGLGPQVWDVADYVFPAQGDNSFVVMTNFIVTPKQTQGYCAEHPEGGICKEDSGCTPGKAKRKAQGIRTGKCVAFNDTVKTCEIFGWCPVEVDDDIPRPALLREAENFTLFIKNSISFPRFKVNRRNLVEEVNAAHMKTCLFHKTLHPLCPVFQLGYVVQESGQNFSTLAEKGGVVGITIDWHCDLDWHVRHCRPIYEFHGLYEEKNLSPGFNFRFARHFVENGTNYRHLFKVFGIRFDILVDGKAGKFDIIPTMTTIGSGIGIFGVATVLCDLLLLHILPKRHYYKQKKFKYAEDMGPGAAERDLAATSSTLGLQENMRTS
The note with it: cited from earlier work.

Assay [7] concerns EV71. Kind of assay: Effects of other antagonists and agonists on EV71 (Table 9). The class given is cell-based, Enterovirus 71. Further details: key: “NO” indicates there is negative.
In assay [8] the target is T4, P2X2 receptor (Homo sapiens, UniProt Q9UBL9).
T4 sequence (Q9UBL9 1-471): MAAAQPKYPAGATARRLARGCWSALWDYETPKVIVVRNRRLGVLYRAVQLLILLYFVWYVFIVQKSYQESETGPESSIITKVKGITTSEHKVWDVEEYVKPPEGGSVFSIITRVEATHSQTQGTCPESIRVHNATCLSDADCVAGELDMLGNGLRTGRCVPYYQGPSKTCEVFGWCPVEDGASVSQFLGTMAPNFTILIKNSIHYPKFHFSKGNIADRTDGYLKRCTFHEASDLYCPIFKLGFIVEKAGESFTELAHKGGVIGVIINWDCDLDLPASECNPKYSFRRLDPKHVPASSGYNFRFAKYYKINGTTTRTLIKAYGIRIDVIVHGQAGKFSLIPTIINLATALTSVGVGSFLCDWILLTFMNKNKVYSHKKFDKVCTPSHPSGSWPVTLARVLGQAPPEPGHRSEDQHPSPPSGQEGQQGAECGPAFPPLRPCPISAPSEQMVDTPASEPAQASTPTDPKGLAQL
The note with it: Table 8, antagonists; cited from earlier work.

The target in assay [9] is P2Y1 (Homo sapiens, UniProt P47900). The conditions noted are these: Table 9, antagonists; cell names P2Y1; cited from earlier work.
Sequence of P2Y1 (P47900 whole entry, species assumed): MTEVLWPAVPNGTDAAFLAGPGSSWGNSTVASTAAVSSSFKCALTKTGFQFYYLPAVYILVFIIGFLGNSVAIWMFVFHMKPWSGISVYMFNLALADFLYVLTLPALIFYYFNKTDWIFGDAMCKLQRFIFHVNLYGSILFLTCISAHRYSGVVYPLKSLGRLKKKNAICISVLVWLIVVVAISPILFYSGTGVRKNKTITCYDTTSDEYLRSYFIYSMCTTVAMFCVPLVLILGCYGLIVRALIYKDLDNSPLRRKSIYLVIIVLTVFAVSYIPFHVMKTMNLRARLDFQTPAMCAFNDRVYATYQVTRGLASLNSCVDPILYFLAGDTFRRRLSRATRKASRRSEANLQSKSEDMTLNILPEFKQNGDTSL
In assay [10] the test system is EV71 FY-23. In words: EV71 infection of adult rhesus monkeys: blood viral load and body temperature. The conditions noted are these: 50 mg/kg suramin i.v. The class given is in vivo, rhesus monkey (Macaca). The source says:
10 adult rhesus monkeys, which were detected negative for EV71 antibody (rhesus monkey (Macaca), Source: Institute of Medical Biology, Chinese Academy of Medical Sciences, Experimental animal use license number: SYXK (Yunnan) 2010-0009, Certification unit: Yunnan Provincial Science and Technology Agency), were randomly divided into two groups, namely: five in control group (aged about 4 years old, weighing about 5.3 kg, injected with physiological saline), 5 in treatment group (aged about 4.6 years old, weighs about 5.44 kg, injected with 50 mg/kg suramin). Multiple intravenous injections of suramin (50 mg/kg) were used. […] Specific experimental procedure is as follows:
Then, drug was administered intravenously at a dose (50 mg/kg suramin or physiological saline).
Intravenous viral challenge was performed with 4.5 lgCCID50 EV71 FY-23.
Whole blood RNA extraction: obtained 0.2 ml blood, added 0.8 ml TRNzol-A^+, after mixing, placed the well at room temperature for 10 min; added 0.2 ml chloroform, tightened cover lid, vigorously shaking for 15 sec, placed at room temperature for 5 min, centrifuged at 12500 rpm, 4° C., 20 min, 0.4 ml of aqueous phase was transferred to another fresh tube, equal volume of isopropanol was added, mixed, placed at room temperature for 30 min; centrifuged at 12500 rpm, 4° C., 20 min, supernatant was discarded, 1 ml of 75% ethanol was added to wash precipitates, centrifuged at 12500 rpm, 4° C., 30 min. Supernatant discarded, placed at room temperature for 30 min, RNA dried, 20 μl RNase-free ddH2O added, and RNA fully dissolved. Viral load was determined by measurement method as follows:
1) Standard dilutions: obtaining standards (performed according to TaKaRa MiniBEST Viral RNA/DNA extraction Kit Ver 3.0 instructions), 10 μl standards were obtained, 10-fold serial dilutions 10^6, 10^5, 10^4, 10^3, 10^2, 10^1, 10^0.
2) Primer sequences (Taqman probe method):
3) Preparing RT-PCR reaction solution (reaction solutions were prepared on ice):
4) Performing Real Time One Step RT-PCR.

trinitrophenol-ATP [TNP-ATP]: the “P2X receptors 7” value in assay [1] is reported as “+ (+: inhibitory concentration >300 nM)”. The “inhibition of EV71 replication (statement in words)” value in [2] is listed as “can also inhibit EV71 replication”. Further, the “Inhibition of EV71 replication” value in [2] (Table 8, antagonists) is reported as “+ (+: inhibitory concentration >300 nM)”. Moreover, the “P2X receptors 3” value was “+++ (+++: inhibitory concentration <10 nM)” in assay [3] (Table 8, antagonists) and “✓ ✓ ✓ (✓ ✓ ✓ activating concentration <10 nM)” in assay [3] (Table 9, antagonists). Further, the “P2X receptors 5” value in [4] is recorded as “+ (+: inhibitory concentration >300 nM)”. Besides, the Heteromultimer entry in assay [5] is “✓ ✓ ✓ (✓ ✓ ✓ activating concentration <10 nM)”. Besides, the “P2X receptors 1” value in assay [6] (Table 8, antagonists) is “+++ (+++: inhibitory concentration <10 nM)”; in [6] (Table 9, antagonists), “✓ ✓ ✓ (✓ ✓ ✓ activating concentration <10 nM)”. For the same compound, in assay [7], the “EV71 Log10 reduction” value is listed as “NO”. Moreover, the “P2X receptors 2” value in assay [8] is “+ (+: inhibitory concentration >300 nM)”.
With `COc1cc(Cc2cnc(N)nc2N)c(C(C)C)cc1OC` [RO-3], the “P2X receptors 3” value in [3] (Table 9, antagonists) was “✓ ✓ (✓ ✓ activating concentration 10 nM-300 nM)”. Moreover, the Heteromultimer entry in [5] is reported as “✓ P2X2/3 (✓ activating concentration >300 nM)”. Also, the “EV71 Log10 reduction” value in [7] was “NO”.
Consider `CNc1ncnc2c1ncn2[C@H]1C[C@H](OP(=O)(O)O)[C@@H](COP(=O)(O)O)O1` [MRS 2179], for which the “P2X receptors 3” value in assay [3] (Table 9, antagonists) is “✓ (✓ activating concentration >300 nM)”. The “P2X receptors 1” value in [6] (Table 9, antagonists) is recorded as “✓ (✓ activating concentration >300 nM)”. For the same compound, in [7], the “EV71 Log10 reduction” value is “NO”. The P2Y result in [9] is on record as “✓ ✓ P2Y1 (✓ ✓ activating concentration 10 nM-300 nM)”.
With `Cc1ccc(C(=O)Nc2ccc(S(=O)(=O)O)c3cc(S(=O)(=O)O)cc(S(=O)(=O)O)c23)cc1NC(=O)c1cccc(NC(=O)Nc2cccc(C(=O)Nc3cc(C(=O)Nc4ccc(S(=O)(=O)O)c5cc(S(=O)(=O)O)cc(S(=O)(=O)O)c45)ccc3C)c2)c1` [suramin, Suramin], the “viral load compared with control group” value in assay [10] (rhesus monkeys) is given as “significantly lower”. Also, the “blood viral load of drug treatment group (average)” value in [10] (4th, 7th and 13th days after viral challenge, control peak 1-1.5×10^3 copies/ml) was 1.5×10^1 copies/ml. For the same compound, the “body temperature after infection” value in [10] (control group showed a rise 1 day after infection) is on record as “essentially maintained body temperatures within normal range”.
